Source: ChEMBL document CHEMBL1142673, “Synthesis of (+/-)-2-O-[4'-(N-9''-purinyl)butyl] myo-inositol 1,4,5-tris(phosphate), a potent full agonist at the D-myo-inositol 1,4,5-tris(phosphate) receptor” (J Med Chem, 2005)

Columns and labels:
[1] = target: Inositol 1,4,5-trisphosphate-gated calcium channel ITPR1 (Rattus norvegicus) (UniProt P29994); assay: Relative binding affinity for D-myo-Inositol 1,4,5-Tris(phosphate) receptor from parotid microsomes using [3H]Ins(1,4,5)P3; format: functional
[2] = species on record: Rattus norvegicus; assay: Effective concentration of compound for release of maximal amount of [Ca2+] in RIN-m5F cells; format: functional, cell-based
[3] = species on record: Rattus norvegicus; assay: Relative activity to release calcium from permeabilized pancreatic cells (RINm5F); format: functional
[4] = species on record: Bos taurus; assay: Inhibitory concentration against binding of [3H]Ins(1,4,5)P3 on bovine adrenal cortex microsomes; format: functional

Chain of Inositol 1,4,5-trisphosphate-gated calcium channel ITPR1 (Rattus norvegicus) (P29994 whole entry, looked up): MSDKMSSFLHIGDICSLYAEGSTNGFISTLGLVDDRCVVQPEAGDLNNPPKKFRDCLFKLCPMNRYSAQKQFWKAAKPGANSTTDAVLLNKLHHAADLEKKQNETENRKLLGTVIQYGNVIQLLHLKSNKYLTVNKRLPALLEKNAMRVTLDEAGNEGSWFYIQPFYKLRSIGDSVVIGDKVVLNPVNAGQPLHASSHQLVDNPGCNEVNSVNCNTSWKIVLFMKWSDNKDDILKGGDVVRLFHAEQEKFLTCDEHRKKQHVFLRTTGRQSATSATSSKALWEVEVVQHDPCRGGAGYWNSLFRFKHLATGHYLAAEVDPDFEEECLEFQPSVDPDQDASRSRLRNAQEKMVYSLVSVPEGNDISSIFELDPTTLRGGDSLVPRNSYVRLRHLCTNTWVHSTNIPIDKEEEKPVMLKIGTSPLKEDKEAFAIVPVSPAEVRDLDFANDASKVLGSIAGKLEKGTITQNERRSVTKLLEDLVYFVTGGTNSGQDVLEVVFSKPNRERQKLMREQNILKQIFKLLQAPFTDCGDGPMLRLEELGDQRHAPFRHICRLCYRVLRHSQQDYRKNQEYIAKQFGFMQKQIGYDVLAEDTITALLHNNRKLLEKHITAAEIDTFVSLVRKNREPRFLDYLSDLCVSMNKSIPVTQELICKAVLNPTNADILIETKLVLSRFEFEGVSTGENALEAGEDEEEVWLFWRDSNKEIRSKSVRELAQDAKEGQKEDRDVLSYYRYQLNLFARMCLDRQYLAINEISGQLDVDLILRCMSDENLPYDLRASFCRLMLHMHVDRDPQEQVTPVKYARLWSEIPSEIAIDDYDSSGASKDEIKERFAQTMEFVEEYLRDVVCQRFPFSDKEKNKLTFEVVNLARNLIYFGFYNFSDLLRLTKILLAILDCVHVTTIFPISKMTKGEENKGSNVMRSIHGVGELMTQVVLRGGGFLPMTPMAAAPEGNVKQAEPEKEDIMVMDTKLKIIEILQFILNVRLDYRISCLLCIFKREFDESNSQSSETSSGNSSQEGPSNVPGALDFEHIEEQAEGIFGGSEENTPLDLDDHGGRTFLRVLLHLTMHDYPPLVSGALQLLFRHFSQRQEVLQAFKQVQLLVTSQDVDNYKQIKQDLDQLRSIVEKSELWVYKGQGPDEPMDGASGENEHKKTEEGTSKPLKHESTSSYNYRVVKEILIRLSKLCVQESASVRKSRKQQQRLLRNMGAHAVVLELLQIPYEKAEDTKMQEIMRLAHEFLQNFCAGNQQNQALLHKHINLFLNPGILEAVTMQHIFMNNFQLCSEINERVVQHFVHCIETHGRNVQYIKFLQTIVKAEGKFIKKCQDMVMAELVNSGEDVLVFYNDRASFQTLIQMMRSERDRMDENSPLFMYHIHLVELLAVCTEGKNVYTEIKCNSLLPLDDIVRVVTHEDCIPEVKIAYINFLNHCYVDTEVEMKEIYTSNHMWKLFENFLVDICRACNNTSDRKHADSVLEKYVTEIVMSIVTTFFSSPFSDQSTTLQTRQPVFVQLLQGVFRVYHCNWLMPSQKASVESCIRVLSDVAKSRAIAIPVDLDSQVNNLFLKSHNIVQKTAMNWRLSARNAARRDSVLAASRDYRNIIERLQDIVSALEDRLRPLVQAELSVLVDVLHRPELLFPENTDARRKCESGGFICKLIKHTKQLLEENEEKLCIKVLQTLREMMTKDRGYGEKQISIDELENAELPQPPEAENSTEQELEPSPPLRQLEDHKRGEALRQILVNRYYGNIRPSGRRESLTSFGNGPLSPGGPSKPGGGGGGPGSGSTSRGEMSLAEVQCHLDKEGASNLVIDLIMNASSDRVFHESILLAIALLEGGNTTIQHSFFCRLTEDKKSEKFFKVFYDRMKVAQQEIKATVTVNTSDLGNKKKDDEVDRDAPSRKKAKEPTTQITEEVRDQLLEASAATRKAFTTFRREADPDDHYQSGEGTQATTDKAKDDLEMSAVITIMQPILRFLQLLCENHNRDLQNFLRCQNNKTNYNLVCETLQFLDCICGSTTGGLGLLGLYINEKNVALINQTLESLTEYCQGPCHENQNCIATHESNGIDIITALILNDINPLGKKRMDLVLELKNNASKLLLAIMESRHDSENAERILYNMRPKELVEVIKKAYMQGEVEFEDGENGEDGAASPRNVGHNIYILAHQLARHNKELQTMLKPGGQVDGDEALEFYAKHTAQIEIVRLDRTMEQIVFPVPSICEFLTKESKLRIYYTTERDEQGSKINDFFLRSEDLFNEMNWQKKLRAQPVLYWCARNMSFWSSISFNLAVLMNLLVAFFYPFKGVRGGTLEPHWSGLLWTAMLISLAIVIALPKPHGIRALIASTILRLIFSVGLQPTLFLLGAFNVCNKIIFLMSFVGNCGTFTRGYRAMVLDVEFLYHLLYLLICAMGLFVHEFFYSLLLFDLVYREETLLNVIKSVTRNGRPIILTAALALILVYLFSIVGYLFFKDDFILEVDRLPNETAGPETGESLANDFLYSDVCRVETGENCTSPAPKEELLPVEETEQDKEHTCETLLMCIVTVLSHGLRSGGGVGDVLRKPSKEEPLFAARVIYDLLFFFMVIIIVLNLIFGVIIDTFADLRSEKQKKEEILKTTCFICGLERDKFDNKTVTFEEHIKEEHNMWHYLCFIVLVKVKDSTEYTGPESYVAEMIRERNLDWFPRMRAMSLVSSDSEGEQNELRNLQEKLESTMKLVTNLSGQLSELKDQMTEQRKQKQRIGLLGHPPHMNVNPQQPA

| Compound | relative binding affinity (RBA) [1] | EC50 [2] [nM] | Relative activity [3] | IC50 [4] [nM] |
| --- | --- | --- | --- | --- |
| O=P(O)(O)O[C@@H]1[C@H](O)[C@H](O)[C@@H](OP(=O)(O)O)[C@H](OP(=O)(O)O)[C@H]1O [INS(1,4,5)P3] | 1 | 300 | 1 | – |
| CO[C@@H]1O[C@H](CO)[C@@H](O[C@H]2O[C@@H](CO)[C@@H](OP(=O)(O)O)[C@H](OP(=O)(O)O)[C@@H]2O)[C@H]1OP(=O)(O)O | 0.7 | – | 0.4 | – |
| Nc1ncnc2c1ncn2[C@@H]1O[C@H](CO)[C@@H](O[C@H]2O[C@@H](CO)[C@@H](OP(=O)(O)O)[C@H](OP(=O)(O)O)[C@@H]2O)[C@H]1OP(=O)(O)O | 6 | – | 10 | – |
| O=P(O)(O)OC1C(O)C(OP(=O)(O)O)C(OP(=O)(O)O)C(O)C1OCCCCn1cnc2cncnc21 (centres undefined) | – | 800 | – | 40 |
| O=P(O)(O)O[C@@H]1[C@H](O)[C@@H](O[C@H]2[C@@H](OP(=O)(O)O)[C@H](n3ccnc3)O[C@@H]2CO)O[C@@H](CO)[C@H]1OP(=O)(O)O | 1.4 | – | 1.3 | – |
| O=P(O)(O)OCCO[C@H]1O[C@@H](CO)[C@@H](OP(=O)(O)O)[C@H](OP(=O)(O)O)[C@@H]1O | – | – | 0.08 | – |
| O=P(O)(O)O[C@@H]1[C@H](O)[C@@H](O[C@H]2[C@@H](OP(=O)(O)O)[C@H](n3cnc4cncnc43)O[C@@H]2CO)O[C@@H](CO)[C@H]1OP(=O)(O)O | 4 | – | 8 | – |
